Molecules are shown by their SMILES.

The assay deals with T1, P2X purinoceptor 4 (Homo sapiens, UniProt Q99571).
T1 sequence (Q99571 whole entry): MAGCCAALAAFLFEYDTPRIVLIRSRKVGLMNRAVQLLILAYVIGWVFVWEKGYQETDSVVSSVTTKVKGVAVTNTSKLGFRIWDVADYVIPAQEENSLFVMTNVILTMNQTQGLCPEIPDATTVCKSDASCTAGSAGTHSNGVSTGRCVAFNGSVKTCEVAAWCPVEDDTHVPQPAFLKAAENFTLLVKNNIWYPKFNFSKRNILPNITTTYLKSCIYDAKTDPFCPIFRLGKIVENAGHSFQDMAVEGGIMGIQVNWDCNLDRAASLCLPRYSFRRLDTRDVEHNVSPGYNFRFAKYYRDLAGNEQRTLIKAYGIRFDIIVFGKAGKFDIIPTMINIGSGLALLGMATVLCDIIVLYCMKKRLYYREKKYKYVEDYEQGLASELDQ
In words: Inhibition of human P2X4 stably expressed in human HEK293 cells assessed as intracellular calcium flux incubated for 30 mins in presence of agonist Benzoylbenzoyl-ATP by Fluo8-AM dye based FLIPR assay. It is filed as cell-based. (Calcium assays in cells follow changes in intracellular calcium, usually with a dye or a luminescent sensor.)
By IC50 is commonly meant the concentration needed to halve the response being measured. Regarding `CC(=O)N(c1ccc2ncoc2c1)c1cc(NC(=O)Cc2ccccc2Cl)ccn1`, the IC50 came to 168 nM.

For the compound `CC(=O)N(c1ccc2ncsc2c1)c1cc(NC(=O)Cc2ccccc2Cl)ccn1`, the IC50 worked out at 142 nM.

For the compound `CC(=O)N(c1ccn2nccc2c1)c1cc(NC(=O)Cc2c(Cl)cccc2Cl)ccn1`, the IC50 was 157 nM.

`CC(=O)N(c1cc(NC(=O)Cc2c(Cl)cccc2Cl)ccn1)c1ccncc1F`: the IC50 was determined as 171 nM.

On to `CC(=O)N(c1ccc2ncoc2c1)c1cc(NC(=O)Cc2cccc(F)c2Cl)ccn1`, for which the IC50 was 143 nM.

With `CC(=O)N(c1ccc2ncoc2c1)c1cc(NC(=O)Cc2c(Cl)cccc2Cl)ccn1`, the IC50 turned out to be 141 nM.

The record behind these values is ChEMBL document CHEMBL5131526, “Substituted N-Heteroaryl-N-Pyridinylacetamides as P2X4 Modulators for Treating Pain” (ACS Med Chem Lett, 2022).
